# Experimental data published in patent publication EP1976513B1 (priority 2006, dated 2007).
# Several values for one entry are separate records, joined by “and”; a condition that tells them apart may be missing. Equal values may be shown once. Read-outs that look alike come from different tables or passages of the source.
# How the values were obtained:
# mice [1] = experiment: Mouse locomotor activity; type: in vivo; details: PO
# Procedure: (§1) In order to ensure effects of the compounds on immobility time were not related to a general stimulant effect on baseline motor activity, locomotor activity was assessed using photocell monitored cages (Med-Associates Inc.). Each test chamber was equipped with infrared photocell beams to measure movement of the animals. Horizontal and vertical activity were measured
# (§2) Rats or mice were pretreated with vehicle or test compounds and placed back in home cage, following which they will be individually placed in locomotor cages and activity was monitored in 5 minute intervals for up to 60 min.
# (§3) Data were analyzed by one way analysis of variance (ANOVA) followed by post-hoc comparisons where appropriate. An effect was considered significant if p < 0.05. Data are represented as the mean and standard error to the mean (s.e.m).
# dopamine transporter = biological target: T1, dopamine transporter (Rattus norvegicus, UniProt P23977); experiment: biochemical; details: rat synaptosomes, dopamine transporter (DAT)
# T1 construct: synaptosomes isolated in a 0.32 M sucrose buffer from a male Wistar rat striatum; from tissue; host or cells: male Wistar rat striatum synaptosomes
# mice [2] = experiment: Mouse tail suspension test; type: in vivo; details: PO, 30-60 minutes before the test, 5 minutes recording
# Rats [3] = experiment: Rat locomotor activity; type: in vivo; details: PO
# Procedure: as §1, §2, §3
# Rats [4] = experiment: Rat forced swim test; type: in vivo; details: PO, 24 hours and 30-60 minutes before the 5 minute test
# [5] = biological target: T2, DA Transporter (DAT) Sites in Mouse Brain (Mus musculus, UniProt Q61327); experiment: Ex vivo [3H] WIN 35428 binding after oral dosing; parameters: species or system C57BL/6 mice; details: for % Transporter Occupancy, DAT: 60 minutes after treatment, vs vehicle; for Mean Specific Binding (dpm) ± S.E.M., DAT: mice sacrificed 60 minutes after treatment, striatum
# T2 construct: Striatum was used to determine occupancy of DA transporter sites; from tissue; host or cells: C57BL/6 mouse striatum homogenate
# [6] = biological target: Norepinephrine Transporter (NET) Sites in Mouse Brain (Mus musculus, UniProt O55192); details: PO; for % Transporter Occupancy, NET: 60 minutes after treatment, vs vehicle; for Mean Specific Binding (dpm) ± S.E.M., NET: mice sacrificed 60 minutes after treatment, cortex
# [7] = biological target: T3, 5-HT Transporter (SERT) Sites in Mouse Brain (Mus musculus, UniProt Q60857); experiment: Ex vivo [3H] citalopram binding after oral dosing; parameters: species or system C57BL/6 mice; details: for % Transporter Occupancy, SERT: 60 minutes after treatment, vs vehicle; for Mean Specific Binding (dpm) ± S.E.M., SERT: mice sacrificed 60 minutes after treatment, cortex
# T3 construct: Whole brains were removed and cortex and striata dissected out; from tissue; host or cells: C57BL/6 mouse frontal cortex homogenate
# [8] = biological target: human serotonin reuptake transporter (Homo sapiens, UniProt P31645); experiment: cell-based; details: recombinant human serotonin transporter (SERT); read-out: Human IC50 (nM) hSERT
# [9] = biological target: T4, human dopamine reuptake transporter (Homo sapiens, UniProt Q01959); experiment: cell-based; details: recombinant human dopamine transporter (DAT); read-out: Human IC50 (nM) hDAT
# T4 construct: expressed in transfected cells; host or cells: CHO-K1 or HEK293
# serotonin transporter = biological target: T5, serotonin transporter (Rattus norvegicus, UniProt P31652); experiment: biochemical; details: rat synaptosomes, serotonin transporter (SERT)
# T5 construct: synaptosomes isolated in a 0.32M sucrose buffer from a male Wistar rat cortex; from tissue; host or cells: male Wistar rat cortex synaptosomes
# T5 sequence (P31652 whole entry): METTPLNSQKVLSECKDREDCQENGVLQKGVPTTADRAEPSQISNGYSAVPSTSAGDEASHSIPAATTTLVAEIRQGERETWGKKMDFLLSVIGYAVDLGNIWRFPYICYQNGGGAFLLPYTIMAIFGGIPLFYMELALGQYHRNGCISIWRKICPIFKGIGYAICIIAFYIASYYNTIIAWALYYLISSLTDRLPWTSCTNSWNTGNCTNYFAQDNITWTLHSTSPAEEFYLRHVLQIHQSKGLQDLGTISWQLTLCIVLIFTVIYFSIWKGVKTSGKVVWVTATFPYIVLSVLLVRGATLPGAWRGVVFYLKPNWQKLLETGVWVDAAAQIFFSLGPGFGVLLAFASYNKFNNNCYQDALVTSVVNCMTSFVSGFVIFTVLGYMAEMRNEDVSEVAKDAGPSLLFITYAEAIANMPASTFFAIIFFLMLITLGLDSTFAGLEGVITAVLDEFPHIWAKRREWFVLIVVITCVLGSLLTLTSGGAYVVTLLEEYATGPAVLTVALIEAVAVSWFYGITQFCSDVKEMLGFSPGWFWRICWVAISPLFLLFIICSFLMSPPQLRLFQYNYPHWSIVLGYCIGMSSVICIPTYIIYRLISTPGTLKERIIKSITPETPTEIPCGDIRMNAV
# Sequence of human serotonin reuptake transporter (P31645 whole entry): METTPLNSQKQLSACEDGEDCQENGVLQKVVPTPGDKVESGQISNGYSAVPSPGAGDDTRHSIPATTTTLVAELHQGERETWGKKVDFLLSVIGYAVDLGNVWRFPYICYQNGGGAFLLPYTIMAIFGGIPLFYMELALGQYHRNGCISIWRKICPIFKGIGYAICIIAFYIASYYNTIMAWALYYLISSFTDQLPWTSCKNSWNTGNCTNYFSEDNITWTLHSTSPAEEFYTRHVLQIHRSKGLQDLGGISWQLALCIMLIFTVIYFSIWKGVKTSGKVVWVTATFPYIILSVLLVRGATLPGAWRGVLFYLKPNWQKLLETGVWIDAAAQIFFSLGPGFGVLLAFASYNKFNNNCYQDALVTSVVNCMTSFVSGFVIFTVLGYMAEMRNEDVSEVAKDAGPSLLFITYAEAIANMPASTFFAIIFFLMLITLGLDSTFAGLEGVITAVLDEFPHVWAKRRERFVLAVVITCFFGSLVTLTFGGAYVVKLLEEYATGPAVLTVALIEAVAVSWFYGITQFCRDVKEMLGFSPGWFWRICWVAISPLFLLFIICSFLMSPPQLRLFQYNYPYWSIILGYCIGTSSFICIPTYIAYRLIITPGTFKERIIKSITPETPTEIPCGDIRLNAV
# T3 sequence (Q60857 whole entry): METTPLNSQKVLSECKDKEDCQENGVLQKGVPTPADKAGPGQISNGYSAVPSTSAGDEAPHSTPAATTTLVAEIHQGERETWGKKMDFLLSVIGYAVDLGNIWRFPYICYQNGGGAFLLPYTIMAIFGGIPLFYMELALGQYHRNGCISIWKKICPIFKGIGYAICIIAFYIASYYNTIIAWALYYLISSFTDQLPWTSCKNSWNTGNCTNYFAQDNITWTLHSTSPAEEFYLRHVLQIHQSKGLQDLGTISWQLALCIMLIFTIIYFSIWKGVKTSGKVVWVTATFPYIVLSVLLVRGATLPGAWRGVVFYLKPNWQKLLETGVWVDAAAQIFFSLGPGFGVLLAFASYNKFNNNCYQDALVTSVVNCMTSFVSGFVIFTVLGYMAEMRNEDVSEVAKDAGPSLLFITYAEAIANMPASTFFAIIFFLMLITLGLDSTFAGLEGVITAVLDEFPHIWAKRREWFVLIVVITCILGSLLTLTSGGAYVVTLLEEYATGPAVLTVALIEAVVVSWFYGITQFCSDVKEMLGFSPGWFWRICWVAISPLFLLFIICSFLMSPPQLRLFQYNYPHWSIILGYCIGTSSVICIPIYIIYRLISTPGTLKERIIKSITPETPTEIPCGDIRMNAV
# T2 sequence (Q61327 whole entry): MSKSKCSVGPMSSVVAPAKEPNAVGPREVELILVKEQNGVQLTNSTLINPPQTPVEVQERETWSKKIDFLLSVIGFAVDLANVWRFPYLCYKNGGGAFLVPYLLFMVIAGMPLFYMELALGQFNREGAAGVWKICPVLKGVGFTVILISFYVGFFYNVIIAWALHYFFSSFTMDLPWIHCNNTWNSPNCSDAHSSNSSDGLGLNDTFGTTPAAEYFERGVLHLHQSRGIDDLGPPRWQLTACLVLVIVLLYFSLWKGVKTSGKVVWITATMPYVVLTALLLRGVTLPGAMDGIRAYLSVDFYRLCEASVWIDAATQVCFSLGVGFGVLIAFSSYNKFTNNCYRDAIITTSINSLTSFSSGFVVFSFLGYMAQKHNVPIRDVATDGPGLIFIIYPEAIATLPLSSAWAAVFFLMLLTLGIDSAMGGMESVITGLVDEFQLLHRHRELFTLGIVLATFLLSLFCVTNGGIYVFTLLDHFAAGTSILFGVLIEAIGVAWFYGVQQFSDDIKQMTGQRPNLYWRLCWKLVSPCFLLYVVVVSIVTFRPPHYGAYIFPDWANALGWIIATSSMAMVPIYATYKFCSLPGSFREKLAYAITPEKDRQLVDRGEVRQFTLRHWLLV
# Sequence of Norepinephrine Transporter (NET) Sites in Mouse Brain (O55192 whole entry): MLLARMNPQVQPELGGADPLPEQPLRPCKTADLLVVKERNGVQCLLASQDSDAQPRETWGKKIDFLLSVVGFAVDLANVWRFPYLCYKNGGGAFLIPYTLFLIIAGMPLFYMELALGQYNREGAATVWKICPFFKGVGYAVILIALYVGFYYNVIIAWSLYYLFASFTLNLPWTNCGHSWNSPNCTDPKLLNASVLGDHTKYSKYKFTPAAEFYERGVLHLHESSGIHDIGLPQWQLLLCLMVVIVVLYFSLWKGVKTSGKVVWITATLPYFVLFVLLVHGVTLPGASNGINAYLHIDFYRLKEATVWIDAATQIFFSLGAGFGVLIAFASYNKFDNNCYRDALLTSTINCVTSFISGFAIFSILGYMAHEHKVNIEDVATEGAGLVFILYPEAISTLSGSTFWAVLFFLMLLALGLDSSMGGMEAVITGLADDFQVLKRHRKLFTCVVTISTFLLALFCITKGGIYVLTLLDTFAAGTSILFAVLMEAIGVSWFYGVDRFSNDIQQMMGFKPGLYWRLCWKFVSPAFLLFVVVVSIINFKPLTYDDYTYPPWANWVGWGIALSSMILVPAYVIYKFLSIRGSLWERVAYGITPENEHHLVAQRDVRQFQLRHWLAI
# T1 sequence (P23977 whole entry): as the sequence (Q61327 whole entry) above, with P21S, V57A, S194A, R600H, V619L counted along it
# T4 sequence (Q01959 whole entry): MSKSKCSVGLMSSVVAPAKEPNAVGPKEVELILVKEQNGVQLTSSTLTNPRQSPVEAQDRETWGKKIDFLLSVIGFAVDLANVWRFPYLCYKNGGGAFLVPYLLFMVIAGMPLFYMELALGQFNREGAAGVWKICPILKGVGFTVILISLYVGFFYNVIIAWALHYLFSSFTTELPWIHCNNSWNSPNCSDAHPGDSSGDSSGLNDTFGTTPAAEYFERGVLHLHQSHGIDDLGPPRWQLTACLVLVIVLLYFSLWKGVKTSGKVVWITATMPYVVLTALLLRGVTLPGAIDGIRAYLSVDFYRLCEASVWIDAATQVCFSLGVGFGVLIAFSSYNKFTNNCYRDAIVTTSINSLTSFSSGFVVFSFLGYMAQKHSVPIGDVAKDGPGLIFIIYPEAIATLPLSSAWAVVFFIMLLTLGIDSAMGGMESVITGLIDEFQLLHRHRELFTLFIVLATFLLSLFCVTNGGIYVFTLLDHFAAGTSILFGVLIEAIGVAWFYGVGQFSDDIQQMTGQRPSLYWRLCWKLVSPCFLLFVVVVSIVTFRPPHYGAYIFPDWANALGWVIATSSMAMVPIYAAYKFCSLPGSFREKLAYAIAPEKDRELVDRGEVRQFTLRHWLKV
compound,measurement,setting,value
"CNCC1(c2ccc(Cl)c(Cl)c2)CCCCC1.Cl [Compound 75, 1-(1-(3,4-dichlorophenyl)cyclohexyl)-N-methylmethanamine (hydrochloride)]",Mouse Locomotor Activity Total Distance Traveled ± S.E.M.,mice [1]; 3 mg/kg,653.5 ± 48.4
same,Mouse Locomotor Activity Total Distance Traveled ± S.E.M.,mice [1]; 10 mg/kg,608.8 ± 83.4
same,Mouse Locomotor Activity Total Distance Traveled ± S.E.M.,mice [1]; 30 mg/kg,655.3 ± 117.7
same,IC50,dopamine transporter; Rat IC50 (nM) rDAT,58 nM
same,Mouse Tail Suspension Mean Immobility Time ± S.E.M.,mice [2]; 3 mg/kg,187.8 ± 9.6
same,Mouse Tail Suspension Mean Immobility Time ± S.E.M.,mice [2]; 10 mg/kg,177.7 ± 5.8
same,Mouse Tail Suspension Mean Immobility Time ± S.E.M.,mice [2]; 30 mg/kg,143.5 ± 5.8
"CN(C)C[C@]1(c2ccc3ccccc3c2)CC[C@](C)(O)CC1 [Compound 225, 4-((dimethylamino)methyl)-1-methyl-4-(naphthalen-2-yl)cyclohexanol]",Rat Locomotor Activity Total Distance Traveled ± S.E.M.,Rats [3]; 3 mg/kg,1783.4 ± 182.7
same,Rat Locomotor Activity Total Distance Traveled ± S.E.M.,Rats [3]; 10 mg/kg,1628.5 ± 159.2
same,Rat Locomotor Activity Total Distance Traveled ± S.E.M.,Rats [3]; 30 mg/kg,2182.8 ± 151.2
same,Mouse Locomotor Activity Total Distance Traveled ± S.E.M.,mice [1]; 0.3 mg/kg,519.5 ± 56.4
same,Mouse Locomotor Activity Total Distance Traveled ± S.E.M.,mice [1]; 1 mg/kg,423.4 ± 62.3
same,Mouse Locomotor Activity Total Distance Traveled ± S.E.M.,mice [1]; 10 mg/kg,234.2 ± 49.4
same,Mouse Locomotor Activity Total Distance Traveled ± S.E.M.,mice [1]; 30 mg/kg,177.4 ± 47.8
same,Rat Forced Swim (Means ± S.E.M.) Climbing,Rats [4]; 3 mg/kg,8.4 ± 1.7
same,Rat Forced Swim (Means ± S.E.M.) Immobility,Rats [4]; 3 mg/kg,50.8 ± 1.8
same,Rat Forced Swim (Means ± S.E.M.) Climbing,Rats [4]; 10 mg/kg,11.1 ± 2.7
same,Rat Forced Swim (Means ± S.E.M.) Immobility,Rats [4]; 10 mg/kg,47.6 ± 3.0
same,Rat Forced Swim (Means ± S.E.M.) Swimming,Rats [4]; 10 mg/kg,1.2 ± 0.6
same,Rat Forced Swim (Means ± S.E.M.) Climbing,Rats [4]; 30 mg/kg,25.0 ± 4.6
same,Rat Forced Swim (Means ± S.E.M.) Immobility,Rats [4]; 30 mg/kg,33.4 ± 4.8
same,Rat Forced Swim (Means ± S.E.M.) Swimming,Rats [4]; 30 mg/kg,1.1 ± 0.5
same,"% Transporter Occupancy, DAT",[5]; 1 mg/kg,3%
same,"Mean Specific Binding (dpm) ± S.E.M., DAT",[5]; 1 mg/kg,19787 ± 3338 dpm
same,"% Transporter Occupancy, DAT",[5]; 3 mg/kg,-6%
same,"Mean Specific Binding (dpm) ± S.E.M., DAT",[5]; 3 mg/kg,21666 ± 3698 dpm
same,"% Transporter Occupancy, DAT",[5]; 10 mg/kg,8%
same,"Mean Specific Binding (dpm) ± S.E.M., DAT",[5]; 10 mg/kg,18872 ± 2775 dpm
same,"% Transporter Occupancy, DAT",[5]; 30 mg/kg,29%
same,"Mean Specific Binding (dpm) ± S.E.M., DAT",[5]; 30 mg/kg,14618 ± 1209 dpm
same,Mouse Tail Suspension Mean Immobility Time ± S.E.M.,mice [2]; 0.3 mg/kg,188.1 ± 8.0
same,Mouse Tail Suspension Mean Immobility Time ± S.E.M.,mice [2]; 1 mg/kg,186.5 ± 5.2
same,Mouse Tail Suspension Mean Immobility Time ± S.E.M.,mice [2]; 3 mg/kg,158.5 ± 4.9 and 155.2 ± 6.0
same,Mouse Tail Suspension Mean Immobility Time ± S.E.M.,mice [2]; 10 mg/kg,137.8 ± 5.2
same,Mouse Tail Suspension Mean Immobility Time ± S.E.M.,mice [2]; 30 mg/kg,136.3 ± 2.5
same,"% Transporter Occupancy, NET",[6]; 1 mg/kg,25%
same,"Mean Specific Binding (dpm) ± S.E.M., NET",[6]; 1 mg/kg,1170 ± 68 dpm
same,"% Transporter Occupancy, NET",[6]; 3 mg/kg,48%
same,"Mean Specific Binding (dpm) ± S.E.M., NET",[6]; 3 mg/kg,813 ± 64 dpm
same,"% Transporter Occupancy, NET",[6]; 10 mg/kg,75%
same,"Mean Specific Binding (dpm) ± S.E.M., NET",[6]; 10 mg/kg,393 ± 21 dpm
same,"% Transporter Occupancy, NET",[6]; 30 mg/kg,85%
same,"Mean Specific Binding (dpm) ± S.E.M., NET",[6]; 30 mg/kg,230 ± 33 dpm
same,"% Transporter Occupancy, SERT",[7]; 1 mg/kg,17%
same,"Mean Specific Binding (dpm) ± S.E.M., SERT",[7]; 1 mg/kg,3842 ± 152 dpm
same,"% Transporter Occupancy, SERT",[7]; 3 mg/kg,54%
same,"Mean Specific Binding (dpm) ± S.E.M., SERT",[7]; 3 mg/kg,2118 ± 139 dpm
same,"% Transporter Occupancy, SERT",[7]; 10 mg/kg,81%
same,"Mean Specific Binding (dpm) ± S.E.M., SERT",[7]; 10 mg/kg,904 ± 35 dpm
same,"% Transporter Occupancy, SERT",[7]; 30 mg/kg,91%
same,"Mean Specific Binding (dpm) ± S.E.M., SERT",[7]; 30 mg/kg,414 ± 37 dpm
same,IC50,[8],7 nM
"CN(C)CC1(c2ccc(Cl)c(Cl)c2)CCC(F)CC1 (centres unmarked) [Compound 254, 1-(1-(3,4-dichlorophenyl)-4-fluorocyclohexyl)-N,N-dimethylmethanamine]",IC50,dopamine transporter; Rat IC50 (nM) rDAT,100 nM
same,IC50,[9],< 1 nM
same,IC50,[8],294 nM
"COC1CCC(CN(C)C)(c2ccc(Cl)c(Cl)c2)CC1 (centres unmarked) [Compound 256, 1-(1-(3,4-dichlorophenyl)-4-methoxycyclohexyl)-N,N-dimethylmethanamine]",IC50,serotonin transporter; read-out: Rat IC50 (nM) rSERT,280 nM
same,IC50,dopamine transporter; read-out: Rat IC50 (nM) rDAT,990 nM
same,IC50,[9],157 nM
same,IC50,[8],69 nM
"CN(C)CC1(c2ccc(Cl)c(Cl)c2)CCC(C)(O)CC1 (centres unmarked) [Compound 277, 4-(3,4-dichlorophenyl)-4-((dimethylamino)methyl)-1-methylcyclohexanol]",Rat Locomotor Activity Total Distance Traveled ± S.E.M.,Rats [3]; 3 mg/kg,1406.2 ± 84.9
same,Rat Locomotor Activity Total Distance Traveled ± S.E.M.,Rats [3]; 10 mg/kg,1861.4 ± 187.8
same,Rat Locomotor Activity Total Distance Traveled ± S.E.M.,Rats [3]; 30 mg/kg,2612.4 ± 210.8
same,Mouse Locomotor Activity Total Distance Traveled ± S.E.M.,mice [1]; 3 mg/kg,418.8 ± 80.6
same,Mouse Locomotor Activity Total Distance Traveled ± S.E.M.,mice [1]; 10 mg/kg,411.8 ± 87.8
same,Mouse Locomotor Activity Total Distance Traveled ± S.E.M.,mice [1]; 30 mg/kg,327.7 ± 67.1
same,IC50,serotonin transporter; Rat IC50 (nM) rSERT,42 nM
same,"% Transporter Occupancy, DAT",[5]; 1 mg/kg,17%
same,"Mean Specific Binding (dpm) ± S.E.M., DAT",[5]; 1 mg/kg,35827 ± 2302 dpm
same,"% Transporter Occupancy, DAT",[5]; 3 mg/kg,21%
same,"Mean Specific Binding (dpm) ± S.E.M., DAT",[5]; 3 mg/kg,34136 ± 4104 dpm
same,"% Transporter Occupancy, DAT",[5]; 10 mg/kg,23%
same,"Mean Specific Binding (dpm) ± S.E.M., DAT",[5]; 10 mg/kg,33230 ± 2807 dpm
same,"% Transporter Occupancy, DAT",[5]; 30 mg/kg,26%
same,"Mean Specific Binding (dpm) ± S.E.M., DAT",[5]; 30 mg/kg,31743 ± 4406 dpm
same,IC50,dopamine transporter; Rat IC50 (nM) rDAT,43 nM
same,"% Transporter Occupancy, NET",[6]; 1 mg/kg,6%
same,"Mean Specific Binding (dpm) ± S.E.M., NET",[6]; 1 mg/kg,950 ± 46 dpm
same,"% Transporter Occupancy, NET",[6]; 3 mg/kg,18%
same,"Mean Specific Binding (dpm) ± S.E.M., NET",[6]; 3 mg/kg,824 ± 30 dpm
same,"% Transporter Occupancy, NET",[6]; 10 mg/kg,47%
same,"Mean Specific Binding (dpm) ± S.E.M., NET",[6]; 10 mg/kg,533 ± 25 dpm
same,"% Transporter Occupancy, NET",[6]; 30 mg/kg,71%
same,"Mean Specific Binding (dpm) ± S.E.M., NET",[6]; 30 mg/kg,294 ± 42 dpm
same,"% Transporter Occupancy, SERT",[7]; 1 mg/kg,-6%
same,"Mean Specific Binding (dpm) ± S.E.M., SERT",[7]; 1 mg/kg,1508 ± 86 dpm
same,"% Transporter Occupancy, SERT",[7]; 3 mg/kg,-5%
same,"Mean Specific Binding (dpm) ± S.E.M., SERT",[7]; 3 mg/kg,1491 ± 75 dpm
same,"% Transporter Occupancy, SERT",[7]; 10 mg/kg,0%
same,"Mean Specific Binding (dpm) ± S.E.M., SERT",[7]; 10 mg/kg,1416 ± 43 dpm
same,"% Transporter Occupancy, SERT",[7]; 30 mg/kg,3%
same,"Mean Specific Binding (dpm) ± S.E.M., SERT",[7]; 30 mg/kg,1384 ± 101 dpm
same,IC50,[8],34 nM
